SMILES strings stand for the structures. Where two headings read alike, the source gives them in different places.

Series [1] deals with T1, Aβ and ΔK280 tauRD aggregates (Homo sapiens, UniProt P05067+P10636, DEL597-597).
T1 construct: To investigate Aβ and ΔK280 tauRD aggregates
Briefly: TEM examination of Aβ and tau aggregates. Particulars: 10 μM. An excerpt: To investigate Aβ and ΔK280 tauRD aggregates, samples of the fibrils formed with and without treatment of a tested compound were placed on a 200-mesh copper (holey-carbon) grid and visualized using a JEM-1230 transmission electron microscope (TEM) (JEOL, Tokyo, Japan) at an accelerating voltage of 100 kV.

For series [2], the system named is Aβ-GFP SH-SY5Y cells. Briefly: Real-time PCR of Aβ-GFP RNA. Particulars: 5 μM. Format: cell-based, Human. As for the experimental part:
(§1) To measure the Aβ-GFP/tauRD-DsRed RNA expression on day 8, total RNA was extracted from collected cells and reverse-transcribed to cDNA (SuperScript III reverse transcriptase; Invitrogen, Waltham, MA, USA). Real-time quantitative PCR was performed using 100 ng of cDNA and the gene-specific TaqMan fluorogenic probe PN4331348 (EGFP) or customized Assays-by-Design probe for DsRed and 4326321E (HPRT1) (StepOnePlus Real-time PCR system, Applied Biosystems, Foster City, CA, USA). The RNA expression level was calculated using the formula 2^ΔCt, ΔCT = CT (control) − CT (target), in which CT indicates the cycle threshold.

The test system of series [3] is caspase 1. As to the kind of experiment: Caspase 1 activity in Aβ-GFP cells. Format: cell-based, Human. Particulars: 5 μM, vs untreated cells. How it is done: (§2) Aβ-GFP or ∆K280 tauRD-DsRed SH-SY5Y cells were seeded into 6-well plates (5 × 10^5/well) and treated with retinoic acid, coumarin-chalcone derivatives, and doxycycline as previously described. On day 8, cells were collected and lysates were prepared with six freeze/thaw cycles. The supernatant was collected by centrifugation, followed by measurement of the caspase 1 activity in 50 μg aliquots of cell extract using the ICE fluorometric assay kit (BioVision, Milpitas, CA, USA). Following incubation of the mixture at 37°C for 2 h, fluorescence was measured with excitation/emission wavelengths at 400/505 nm (FLx800 fluorescence microplate reader). In addition, the collected cells were lysed by sonication. Acetylcholinesterase (AChE) activity in the supernatant was determined in 10 μg aliquots of cell extracts using the AChE activity assay kit (Sigma-Aldrich) according to the manufacture's protocol. Finally, the absorbance at 412 nm was measured using a Multiskan GO spectrophotometer (Thermo Fisher Scientific).

Series [4] concerns Acetylcholinesterase (AChE). Briefly: AChE activity in Aβ-GFP cells. Particulars: 5 μM, vs untreated cells. Format: cell-based. As for the experimental part:
as §2

Series [5] concerns ∆K280 tauRD-DsRed SH-SY5Y cells. Briefly: Real-time PCR of tauRD-DsRed RNA. To be noted: 10 μM. Format: cell-based, Human. As for the experimental part: as §1
For series [6], the system named is caspase 1. Briefly: Caspase 1 activity in ΔK280 tauRD-DsRed cells. Type of series: cell-based, Human. To be noted: 10 μM, ∆K280 tauRD-DsRed cells. As for the experimental part:
as §2

Series [7] is described as follows: Mouse pharmacokinetics study and brain/plasma ratio. Format: in vivo, Male Crl:CD-1 (ICR) mice. To be noted: for half-life: read-out: t1/2 (elimination half-life) (converted); for AUC(0-inf): iv, 5 mg/kg. As for the experimental part:
Male Crl:CD-1 (ICR) mice (8 weeks old) weighing 25–30 g were housed in cages with ad libitum access to food and drinking water on a 12 : 12 h light-dark cycle. All animal experiments were performed in accordance with the guidelines approved by the Rosetta Pharmamate Institutional Animal Care and Use Committee (IACUC Approval No: AF20015). Mice were randomly divided into 7 subgroups (6 time points and 1 vehicle control; n = 3 per subgroup). LM-021 (in 5% DMSO and 19% hydroxypropyl-β-cyclodextrin) was administered intravenously (IV) at 5 mg/kg dose in volume of 10 ml/kg. Mice were euthanized in a CO2 chamber at 0.25, 0.5, 1, 2, 4, or 8 h postdose. Whole blood was collected via facial veins in heparin-coated polypropylene tubes, and plasma was obtained by centrifugation (1000 × g for 15 min at 4°C) within 60 min of collection. After cerebral vasculature perfusion through the left ventricle with normal saline for 5 min, the whole brain was quickly excised and weighed. Plasma and brain samples were rapidly frozen and stored at −70°C until analysis (see supplementary materials).
Pharmacokinetic (PK) parameters, including plasma concentration following IV dose (C0), elimination half-life (T1/2), mean residence time (MRT), and area under the concentration- (AUC-) time curve from time 0 extrapolated to infinity (AUC(0-∞)), were estimated using noncompartmental pharmacokinetic parameter analysis with Phoenix WinNonlin software (version 8.2, Pharsight Corporation, Mountain View, CA, USA). In addition, the ratio of brain/plasma was calculated from the area under the curve for brain and plasma concentrations.
Supplementary Description
Preparation and analysis of mouse plasma and brain homogenate samples. A solvent-based protein precipitation procedure was used for analyzing plasma and brain homogenate samples. A 20-μl aliquot of each plasma sample was mixed with 60 μl of acetonitrile. For brain samples, collected brains were homogenized in 3 volumes of methanol, and then 50 μl of brain homogenate was mixed with 50 μl of acetonitrile.
After vortexing and centrifugation (20,000 × g for 5 min), the extracted supernatants were collected. Liquid chromatography – tandem mass spectrometry (LC-MS/MS) analyses was performed using an Agilent 1200 (Agilent Technologies, Palo Alto, CA, USA) coupled to a QTrap 5500 triple-quadrupole mass spectrometer (AB SCIEX, Foster City, CA, USA). Chromatographic separation was performed on an Eclipse Plus C18 column (3.5 µm; 4.6 × 50 mm; Agilent Technologies) with the mobile phase performed at a constant flow rate of 1.0 ml/min using a binary solvent system: solvent A, 5 mM ammonium acetate; solvent B, acetonitrile. The transition (precursor ion to daughter ion) monitored was m/z 336.2 → 321.0 for LM-021. Multiple reaction monitoring (MRM) data were acquired, and the chromatograms were integrated using Analyst 1.6.3 software (Applied Biosystems). A weighted (1/x) linear regression was used to generate the calibration curves from standards and to calculate the sample […]
concentrations. […]

Where [8] appears, read: Crl:CD-1 (ICR), mouse, plasma, ICR male mice, IV 5 mg/kg.

In the case of `CN(C)c1ccc(/C=C/C(=O)c2c(O)c3ccccc3oc2=O)cc1` [LM-021, (E)-3-(3-(4-(dimethylamino)phenyl)acryloyl)-4-hydroxy-2H-chromen-2-one], in series [1], the “Aβ and tau aggregate structures by TEM” value is listed as “reduced amyloid aggregates”. The “Aβ-GFP RNA levels” value in series [2] is on record as “did not significantly modify”. For the same compound, the “Caspase 1 activity” value in series [3] is recorded as “reduced”; in series [6], “lowered caspase 1 activity”. In series [4], the AChE activity result is listed as “reduced”. Further, in series [5], the “∆K280 tauRD-DsRed RNA level” value is listed as “did not significantly alter”. Further, the half-life is 2.17 ± 0.67 h in series [7] (Crl:CD-1 (ICR), mouse, brain, ICR male mice, IV 5 mg/kg) and 2.54 ± 0.79 h in series [7] (setting [8]). The C0 in series [7] (setting [8]) turned out to be 20400 ± 9480 ng/mL. Besides, in series [7] (setting [8]), the MRT turned out to be 3.54 ± 0.93 h. The clearance in series [7] (setting [8]) turned out to be 1.85 ± 0.12 mL/min/kg. Besides, in series [7] (Crl:CD-1 (ICR), mouse, plasma, ICR male mice, IV 5 mg/kg, read-out: Vss), the Vd was determined as 0.39 ± 0.08 L/kg. The Brain/plasma ratio in series [7] (calculated by the AUC(0-∞) ratios, ICR male mice, IV 5 mg/kg) is 0.053. Moreover, in series [7] (male, Crl:CD-1 (ICR), mouse, brain and plasma, mice, IV 5 mg/kg), the Kp came to 0.053. For the same compound, the AUC(0-inf) in series [7] (male, Crl:CD-1 (ICR), mouse, brain, brain (tissue density assumed 1 g/ml), ICR male mice, IV 5 mg/kg, read-out: AUC(0-∞)) worked out at 2380 ± 34 ng·h/mL; in series [7] (male, Crl:CD-1 (ICR), mouse, brain, brain, mice, intravenous bolus 5 mg/kg, read-out: Systemic exposure (AUC0-∞)), 2380 ± 30 ng·h/mL; in series [7] (male, Crl:CD-1 (ICR), mouse, plasma, plasma, ICR male mice, IV 5 mg/kg, read-out: AUC(0-∞)), 45300 ± 2830 ng·h/mL; in series [7] (male, Crl:CD-1 (ICR), mouse, plasma, plasma, mice, intravenous bolus 5 mg/kg, read-out: Systemic exposure (AUC0-∞)), 45300 ± 2830 ng·h/mL. Besides, in series [7] (mice, IV 5 mg/kg), the “Plasma clearance as share of cardiac output blood flow of mice (400 ml/min/kg)” value is recorded as “about 0.5%”.

These data come from publication PMC8605905 (Oxidative Medicine and Cellular Longevity, 2021).
